The values that follow come from patent US20110195432A1, “METHODS FOR THE SELECTION OF THERAPEUTIC TREATMENTS FOR CANCER” (priority 2008, published 2011).

In assay [1] the test system is HDAC6. Kind of assay: Western blot of HDAC6 protein levels, VCaP cells. Type of assay: cell-based. Particulars: increasing concentrations of CDDO-Imidazole, 24 hours. From the text: (§1) The vehicle sample was set to 1.
For assay [2], the system named is HDAC6. Kind of assay: Western blot of HDAC6 protein levels, LNCaP cells. Particulars: LNCaP cells. Type of assay: cell-based.
The next assay deals with Her2Neu protein. Particulars: breast cancer cells; through proteasomal degradation; cited from earlier work.
Assay [3] deals with AR. Put plainly: Western blot of AR protein levels, LNCaP cells. Type of assay: cell-based. Particulars: LNCaP cells.
The next assay has as its system acetylated tubulin. Kind of assay: Western blot of acetylated tubulin, VCaP cells. Type of assay: cell-based. Particulars: increasing concentrations of CDDO-Imidazole, 24 hours.
Text: as §1

The test system of assay [4] is AR. Kind of assay: Western blot of AR protein levels, VCaP cells. Particulars: TSA or increasing concentrations of CDDO-Imidazole (24 hours), compared with sulforaphane results. Type of assay: cell-based.
For a further assay, the system named is acetylated alpha-tubulin. Kind of assay: Western blot of acetylated alpha-tubulin, LNCaP cells. Type of assay: cell-based. Particulars: LNCaP cells; increasing concentrations of CDDO-Imidazole, 24 hours. Here is the method:
as §1
LNCaP cells were transiently transfected with either a siRNA sequence complementary to the luciferase gene ([…]; SEQ ID NO: 8) or to HDAC6 ([…]; SEQ ID NO: 9) using DharmaFECT 3 transfection reagent for a final concentration of 100 nM (Dharmacon, Lafayette, Colo.). At 48, 72, and 96 hours post-transfection, cells were harvested. Levels of protein expression by Western blot were quantified.

Assay [5] relates to AR. Put plainly: Real-time PCR of AR gene expression, VCaP cells. Type of assay: cell-based. Particulars: 24 hours, increasing doses of sulforaphane, or TSA, vehicle set to 1. The text has this:
(§2) All samples were run in triplicate. The vehicle-treated sample was set to 1.

Assay [6] relates to AR. Put plainly: Western blot of AR protein levels, LNCaP cells. Type of assay: cell-based. Here is the method:
Immunoprecipitation and immunoblotting were performed as described (Qian et al., Clin. Cancer Res. 12:634-42, 2006). The following antibodies used in immunoblotting or immunoprecipitations (indicated dilutions are for immunoblotting): AR (1:1000, #06-680 Upstate, Billerica, Mass.); acetylated lysine (#05-515 Upstate, Billerica, Mass.); acetylated tubulin (1:2000, #T6793 Sigma, St. Louis, Mo.); alpha-tubulin (1:10,000, #T6074 Sigma, St. Louis, Mo.); beta-actin (1:5000, #A5441 Sigma, St. Louis, Mo.); ERG-1/2/3, (1:5000, #sc-354X Santa Cruz, Santa Cruz, Calif.); FLAG epitope (#F7425 Sigma, St. Louis, Mo.); GAPDH (1:5000, #sc-32233 Santa Cruz, Santa Cruz, Calif.); HDAC6 (1:1000, #sc-11420 Santa Cruz); HSP90 (1:1000, #SPA-840 Stressgen, Ann Arbor, Mich.); mouse IgG (#sc-2025 Santa Cruz, Santa Cruz, Calif.). The following secondary antibodies were used: ECL-conjugated anti-mouse IgG, (1:5000, #A6782 Sigma, St. Louis, Mo.); ECL-conjugated anti-rabbit IgG (1:3000, #NA934 Amersham, Piscataway, N.J. or 1:10,000, #sc-2004 Santa Cruz, Santa Cruz, Calif.). X-ray exposures were scanned as uncompressed images and bands were quantified by densitometry with Quantity One software (Bio-Rad, Hercules, Calif.). Intensity values were normalized to those of the endogenous controls. The vehicle sample was set to 1. Enrichment was calculated as: (intensity IP/intensity input)/(intensity IgG/intensity input) or intensity IP/input (FIG. 1B).
LNCaP cells were treated with sulforaphane in a dose-response (5 μM to 20 μM) and time-course (12 and 24 hours) manner to investigate the effect of HDAC6 inhibition on AR protein levels. Western blotting was performed as described in Example 1. […]

In assay [7] the test system is AR. Put plainly: Real-time PCR of AR gene expression, LNCaP cells. Type of assay: cell-based. Particulars: increasing doses of sulforaphane, or TSA, vehicle set to 1.
Text: as §2

Residues, ends and D or L forms follow the SMILES beside them. *: point of attachment. Cbz = O=C(OCc1ccccc1)*

For the compound `CC1(C)CC[C@]2(C(=O)n3ccnc3)CC[C@]3(C)[C@H](C(=O)C=C4[C@@]5(C)C=C(C#N)C(=O)C(C)(C)[C@@H]5CC[C@]43C)[C@@H]2C1` [CDDO-Imidazole], the HDAC6 protein entry with HDAC6 [1] is listed as “depletes HDAC6 in a dose-dependent manner”; in the assay with HDAC6 [2] (increasing concentrations of CDDO-Imidazole, 24 hours), “depletes HDAC6 in a dose-dependent manner”. In the assay with Her2Neu protein, the Her2Neu protein levels entry is listed as “deplete Her2Neu protein levels”. Also, the AR protein levels entry in the assay with AR [3] (TSA or increasing concentrations of CDDO-Imidazole (24 hours), compared with sulforaphane results) is on record as “reduced AR protein levels”; in the assay on AR [4] it was “reduced AR protein levels”. The tubulin acetylation entry with acetylated tubulin and in the assay with acetylated alpha-tubulin was “increased tubulin acetylation” in each case.

As for `CC(C)C[C@@H](C=O)NC(=O)[C@H](CC(C)C)NC(=O)[C@H](CC(C)C)NC(=O)OCc1ccccc1` [MG132] (Cbz-Leu-Leu-Leu-aldehyde), the “AR protein levels, MG132 alone” value in the assay on AR [3] (24 hours, 10 μM MG132 versus vehicle) is “did not change AR protein levels”.

On to `CC(/C=C/C(=O)NO)=C\[C@@H](C)C(=O)c1ccc(N(C)C)cc1` [TSA, trichostatin A], for which the HDAC6 protein levels entry in the assay on HDAC6 [2] (16 hours, 300 nM TSA without or with 20 μM MG132) is on record as “minimal effects”. For the same compound, the AR transcripts result with AR [5] and in the assay on AR [7] was “suppressed AR transcripts” in each case. In the assay with AR [6] (24 hours, sulforaphane 20 μM or 300 nM TSA with 10 μM MG132), the “AR steady state level with simultaneous MG132 treatment” value was “restored the AR steady state level close to that seen in the vehicle-treated control”. Also, the “AR protein in the absence of MG132” value with AR [6] (24 hours, sulforaphane 20 μM or 300 nM TSA, versus vehicle-treated cells) was “dramatic reductions”. Besides, the “AR protein levels at 24 hours” value in the assay on AR [6] (sulforaphane 15 μM and 20 μM, TSA) was “recovered”.
